Measurements as given in US20100196355A1, “Immunophilin Ligands and Methods for Modulating Immunophilin and Calcium Channel Activity” (Wyeth, priority 2007, published 2010).
Like-named read-outs stand apart in the source and are kept apart here.

Key:
F-11 cells = test: Neurite outgrowth of F-11 cells (neurofilament ELISA); assay type: cell-based, rat and mouse hybrid
Procedure: Cells were fixed with 4% paraformaldehyde for 30 min at 37° C. Nonspecific binding was blocked by incubating with PBS containing 0.3% Triton X-100 and 5% fetal bovine serum (FBS) for 45 min. […] After washing, a peroxidase-conjugated anti-mouse secondary antibody (1:1000) was applied for 2 h. After three washes, the peroxidase substrate K-BlueMax was added to the cultures and incubated for 10 min. Optical density was determined at 650 nm.

[1] = tested on: cultured rat cortical neurons; test: Neuronal survival assay (neurofilament ELISA); assay type: cell-based; details: cultured rat cortical neurons
Procedure: Cultures were fixed for 30 min with 4% paraformaldehyde at 37° C. Nonspecific binding was blocked by incubating with PBS containing 0.3% Triton X-100 and 5% fetal bovine serum (FBS) for 45 min. Cultures were then incubated overnight at 4° C. with an anti-neurofilament (200 kD) monoclonal antibody (1:1000, clone RT-97, Chemicon, Temecula, Calif.). After washing, a peroxidase-conjugated secondary antibody (1:1000, Vector Labs, Burlingame, Calif.) was applied for 2 h. After three washes, the peroxidase substrate K-BlueMax (Neogen, Lexington, Ky.; Young et al., 1999) was added to the cultures and incubated for 10 min on an orbital shaker. The peroxidase substrate is highly soluble in the K-BlueMax solution. Optical density is then readily measured using a Molecular Devices Spectramax Plus colorimetric plate reader at 650
Briefly, cortical neuron cultures were prepared from embryonic day 15 (E15) rat embryos (Sprague-Dawley, Charles River Laboratories, Wilmington, Mass.). The embryos were collected, their brains were removed, and the cortices were dissected out in ice-cold phosphate-buffered saline (PBS) without Ca^2+ and Mg^2+. Dissected pieces of cortical tissue were pooled together and transferred to an enzymatic dissociation media containing 20 IU/ml papain in Earle's balanced salt solution (Worthington Biochemical, Freehold, N.J.) and incubated for 30 min at 37° C. After enzymatic dissociation, the papain solution was aspirated and the tissue mechanically triturated with a fire-polished Pasteur pipette in complete media [Neurobasal Medium with B-27 supplement (Gibco, Grand Island, N.Y.), 100 IU/ml penicillin, 100 μg/ml streptomycin, 3.3 μg/ml aphidicolin, 0.5 mM glutamate] containing 2,000 IU/ml DNase and 10-mg/ml ovomucoid protease inhibitor.

His6-CACNB1:TGG548TAA = target: T1, His6-CACNB1:TGG548TAA (Homo sapiens, UniProt Q02641); test: Protein fluorescent quenching; assay type: binding; details: compound 1 μM, protein 0-8 μM
T1 construct: His6 (N); made in house
T1 sequence (Q02641 1-547 limits assumed): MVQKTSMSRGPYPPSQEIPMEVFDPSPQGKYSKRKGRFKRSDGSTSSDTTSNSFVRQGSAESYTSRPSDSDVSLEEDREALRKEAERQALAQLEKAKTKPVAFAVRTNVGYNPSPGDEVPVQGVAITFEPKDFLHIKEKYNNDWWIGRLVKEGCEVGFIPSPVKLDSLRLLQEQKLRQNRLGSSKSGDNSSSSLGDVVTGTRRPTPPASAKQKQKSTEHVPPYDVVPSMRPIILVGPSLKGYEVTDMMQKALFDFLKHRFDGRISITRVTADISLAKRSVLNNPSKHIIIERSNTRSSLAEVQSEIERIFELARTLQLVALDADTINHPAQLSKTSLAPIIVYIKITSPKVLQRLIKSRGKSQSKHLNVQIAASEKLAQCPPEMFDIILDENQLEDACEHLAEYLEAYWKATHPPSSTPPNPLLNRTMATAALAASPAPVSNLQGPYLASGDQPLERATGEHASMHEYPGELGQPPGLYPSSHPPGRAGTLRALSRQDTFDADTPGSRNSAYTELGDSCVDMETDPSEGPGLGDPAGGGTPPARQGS
From the text: (§1) The His6-CACNB1: […] were generated from pDEST17-CACNB1 using QuikChange site-directed mutagenesis kit (Stratagene, LaJolla, Calif.). The His6 tagged protein was purified on a Ni-NTA column (Qiagen, Valencia, Calif.). […] J. Biol. Chem. 281, 14961-14970 (2006).

[2] = target: T2, FKBP52-rapamycin analogue I-Ca2+ channel β1 subunit complex (Mus musculus, UniProt P30416+Q8R3Z5); test: Co-immunoprecipitation of complex from F11 cell lysate; assay type: binding, rat and mouse hybrid
T2 construct: endogenous in cells; host or cells: F11 cell lysate
T2 sequence (P30416 whole entry): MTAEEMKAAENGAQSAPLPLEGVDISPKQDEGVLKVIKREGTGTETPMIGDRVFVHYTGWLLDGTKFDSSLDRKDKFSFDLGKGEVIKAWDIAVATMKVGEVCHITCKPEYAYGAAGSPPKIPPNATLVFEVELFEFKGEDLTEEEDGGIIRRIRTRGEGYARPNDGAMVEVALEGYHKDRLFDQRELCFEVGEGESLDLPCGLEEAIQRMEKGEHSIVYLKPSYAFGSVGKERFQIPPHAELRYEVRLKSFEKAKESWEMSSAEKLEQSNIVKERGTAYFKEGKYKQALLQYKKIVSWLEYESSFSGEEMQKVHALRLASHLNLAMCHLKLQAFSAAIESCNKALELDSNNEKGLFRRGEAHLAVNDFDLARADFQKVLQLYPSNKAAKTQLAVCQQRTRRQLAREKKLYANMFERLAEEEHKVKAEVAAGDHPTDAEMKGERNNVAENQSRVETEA
T2 sequence (Q8R3Z5 1-479 isoform Q8R3Z5-3): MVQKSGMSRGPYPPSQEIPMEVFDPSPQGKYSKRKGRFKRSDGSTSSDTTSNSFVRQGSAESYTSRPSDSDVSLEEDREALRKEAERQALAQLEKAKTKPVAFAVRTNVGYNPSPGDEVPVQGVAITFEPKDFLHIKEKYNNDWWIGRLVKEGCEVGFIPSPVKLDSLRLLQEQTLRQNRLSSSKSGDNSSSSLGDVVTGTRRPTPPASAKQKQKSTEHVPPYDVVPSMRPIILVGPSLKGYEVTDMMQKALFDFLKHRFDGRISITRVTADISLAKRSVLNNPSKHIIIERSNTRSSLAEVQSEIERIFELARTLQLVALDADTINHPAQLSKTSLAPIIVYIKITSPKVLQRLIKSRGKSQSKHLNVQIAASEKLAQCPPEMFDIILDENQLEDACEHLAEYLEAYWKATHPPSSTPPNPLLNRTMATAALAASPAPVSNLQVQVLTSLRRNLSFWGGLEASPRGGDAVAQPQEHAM
Procedure: Anti-FKBP52 antibody was added at 1:200 dilution to each aliquot and incubated at 4° C. for 5 h. Protein A beads ([…]) were then added to precipitate the anti-FKBP52-antibody-associated complex. The proteins immunoprecipitated on the beads were washed with PBS buffer, separated on 4-20% SDS-PAGE gel, transferred to PVDF, and immunoblotted with anti-Ca^2+ channel β1 subunit antibody (1:500 dilution) to detect the β1 subunit.

[3] = tested on: FKBP52, FKBP25 and FKBP12; test: Affinity chromatography on Compound 2 matrix (SDS-PAGE); assay type: binding, human; details: protein retained on compound beads vs blank beads
[4] = tested on: transient mid-cerebral artery occlusion model for ischemic stroke; details: cited from earlier work
CACNB1 = test: Affinity chromatography on Compound 2 matrix (SDS-PAGE); assay type: binding, human; details: protein retained on compound beads vs blank beads
From the text: as §1

Human CD4+ T cells = test: Immunosuppression assay: IL-2 stimulated CD4+ T-cell proliferation; assay type: cell-based; details: up to 1 μM
Procedure: Human CD4^+ T cells were purified by negative selection from peripheral blood lymphocytes using RosetteSep as per manufacture's instructions (StemCell Technologies, Inc. Vancouver, British Columbia). Tosyl-activated magnetic microspheres (Dynal, Great Neck, N.Y.) were coated with anti-CD3 Ab (1 μg/10^7 microspheres), and anti-CD28Ab ([…]) as described in Blair et al. J. Immunol., 160:12, 1998. […] Protein-coated microspheres were added to purified CD4+T cells (2×10^6cells/mL, ratio 1 bead: 1 cell) and activated for 72 hours in RPMI, 10% fetal calf serum, 2 mM glutamine media. Cells were harvested, washed, and cultured overnight in fresh media and re-stimulated with IL-2 as described in Bennett et al., J. Immunol. 170:711, 2003. […] Seventy-two hours after culture re-stimulation, plates were pulsed with 1 μCi/well tritiated thymidine and incubated for a 6-16 hour period.

[5] = tested on: Ca2+ channels in cultured rat hippocampal neurons; test: Whole-cell patch clamp recording of Ca2+ currents in hippocampal neurons; assay type: cell-based; details: 10 μM internal
Procedure: The whole-cell configuration of the patch-clamp technique was used to record calcium currents from the cells at room temperature using an EPC-9 amplifier (HEKA, Instrutech Corp.) with the acquisition and analysis program Pulse-PulseFit from HEKA (Lambrecht, Germany). Electrodes were fabricated using a P-87 puller (Sutter Instrument). […] The standard bath recording solution is Ca^2+ and Mg^2+ free HBSS (pH 7.4) containing 10 mM HEPES, 10 mM dextrose, and 4 mM BaCl2. Currents were filtered at 3 kHz, and the inward Ca^2+ currents were recorded from cells held at −90 mV with 10 mV depolarizing steps from −80 mV to 60 mV for 50 ms.

Structure (SMILES) | neurite outgrowth in F-11 cells (F-11 cells) | neurofilament content, higher than 50 μM or no compound control (F-11 cells; 5 μM, 96 hrs) | neuronal survival, neurofilament ELISA [1] | protein fluorescent quenching (His6-CACNB1:TGG548TAA) | Ca2+ channel β1 subunit co-immunoprecipitated with FKBP52 ([2]; 5 μM) | Ca2+ channel β1 subunit co-immunoprecipitated with FKBP52 ([2]; 50 μM) | binding to FKBP52, FKBP25 and FKBP12 [3] | reduction of infarct volume ([4]; 10 mg/kg) | reduction of infarct volume ([4]; 30 mg/kg) | binding to CACNB1 (CACNB1) | inhibition of IL-2 stimulated CD4+ T-cell proliferation (Human CD4+ T cells) | inhibition of Ca2+ current ([5]; N-type Ca2+ channels blocked, after 10 min) | inhibition of the remaining Ca2+ current ([5]; both N- and L-type Ca2+ channels blocked)
CO[C@H]1C[C@@H]2CC[C@@H](C)[C@@](O)(O2)C(=O)C(=O)N2CCCCC2C(=O)O[C@H]([C@H](C)C[C@@H]2CC[C@@H](O)[C@H](OC)C2)CC(=O)[C@H](C)/C=C(\C)[C@@H](O)[C@@H](OC)C(=O)[C@H](C)C[C@H](C)C2C=C[C@H](/C=C/1C)ON2c1ccccc1 (stereo partly shown) [Rapamycin analogue I, 9,27-dihydroxy-3-{2-[4-hydroxy-3-methoxycyclohexyl]-1-methylethyl}-10,21-dimethoxy-6,8,12,14,20,26-hexamethyl-37-phenyl-4,9,10,12,13,14,15,18,21,22,23,24,25,26,27,32,33,34,34a-nonadecahydro-3H-23,27-epoxy-18,15-(epoxyimino)pyrido[2,1-c][1,4]oxazacyclohentriacontine-1,5,11,28,29(6H, 31H)-pentone] | promote neurite outgrowth | 4-5 fold | promote neuronal survival | linear dose response curve | large amount | reduced the amount of precipitated β1 subunit | – | – | – | – | – | – | –
CO[C@H]1C[C@@H]2CC[C@@H](C)[C@@](O)(O2)C(=O)C(=O)N2CCCCC2C(=O)O[C@H]([C@H](C)C[C@@H]2CC[C@@H](O)[C@H](OC)C2)CC(=O)[C@H](C)/C=C(\C)[C@@H](O)[C@@H](OC)C(=O)[C@H](C)C[C@H](C)C2CC[C@H](/C=C/1C)ON2c1ccccc1 (stereo partly shown) [Rapamycin analogue II, 9,27-dihydroxy-3-{2-[4-hydroxy-3-methoxycyclohexyl]-1-methylethyl}-10,21-dimethoxy-6,8,12,14,20,26-hexamethyl-37-phenyl-4,9,10,12,13,14,15,16,17,18,21,22,23,24,25,26,27,32,33,34,34a-henicosahydro-3H-23,27-epoxy-18,15-(epoxyimino)pyrido[2,1-c][1,4]oxazacyclohentriacontine-1,5,11,28,29(6H, 31H)-pentone] | – | – | – | – | – | – | binds | 24% | 23% | binds | no detectable inhibition | 74.5+/−8.8 | 21.3+/−4.4%
